Series [1] can be described thus: Intrinsic cytotoxicity of compounds, MTT assay. Type of series: cell-based, human. Conditions: human, HEK293 WT and HEK293-ABCG2 cells, MTT, read-out: IG50 (µM) ± SD, cytotoxicity (half-maximal cell viability). The procedure: Cell viability was evaluated with a 3-(4,5-dimethylthiazol-2-yl)-2,5-diphenyltetrazolium bromide (MTT) colorimetric assay. HEK293 WT and HEK293-ABCG2 cells were seeded into 96-well culture plates at a 1.5 × 10^4 cells/well density. After overnight incubation, the cells were treated with various concentrations of compounds (0–100 µM) for 72 h at 37 °C under 5% CO2. […] Sensitization experiments were also carried out on H460 and H460MX20 cells. For these experiments, H460 and H460MX20 cells were seeded into 96-well culture plates at 1.0 × 10^4 cells/well density. […] After the treatment, the culture medium was removed and 100 μL of a 0.5 mg.mL^−1 MTT solution was added. Cells were then incubated for 4 h at 37 °C under 5% CO2. The formazan crystals were dissolved with a solution of DMSO/ethanol (1:1) and the absorbance was measured at 570 nm using a Multiscan FC microplate reader (Thermo Scientific). The results were expressed as percentage of viable cells versus control cells (0.1% DMSO, v/v) taken as 100%.
For orientation: Tetrazolium assays rely on reduction of a dye to a coloured formazan, in cell work by metabolically active cells.

Series [2] addresses T1, ABCG2 (Homo sapiens, UniProt Q9UNQ0).
T1 sequence (Q9UNQ0 1-655): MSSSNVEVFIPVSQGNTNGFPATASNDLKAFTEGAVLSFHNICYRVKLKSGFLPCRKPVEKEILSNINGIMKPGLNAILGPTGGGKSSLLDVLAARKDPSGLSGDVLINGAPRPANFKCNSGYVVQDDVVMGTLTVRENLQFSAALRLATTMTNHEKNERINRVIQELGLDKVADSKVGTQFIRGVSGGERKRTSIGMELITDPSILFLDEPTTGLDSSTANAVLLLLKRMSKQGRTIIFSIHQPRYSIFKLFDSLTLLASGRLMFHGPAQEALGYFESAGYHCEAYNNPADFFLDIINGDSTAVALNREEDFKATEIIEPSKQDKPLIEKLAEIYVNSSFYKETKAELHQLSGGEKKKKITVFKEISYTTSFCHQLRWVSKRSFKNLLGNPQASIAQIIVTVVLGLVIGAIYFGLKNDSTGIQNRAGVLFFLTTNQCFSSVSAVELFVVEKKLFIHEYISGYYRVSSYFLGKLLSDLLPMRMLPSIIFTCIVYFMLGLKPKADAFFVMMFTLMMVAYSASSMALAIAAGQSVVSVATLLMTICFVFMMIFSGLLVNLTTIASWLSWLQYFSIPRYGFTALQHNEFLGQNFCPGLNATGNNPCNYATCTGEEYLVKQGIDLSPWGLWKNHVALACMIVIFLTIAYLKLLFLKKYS
As to the kind of experiment: Inhibition of ABCG2-mediated mitoxantrone efflux (flow cytometry). Type of series: cell-based. On the set-up: expressed in transfected cells; host or cells: HEK293. The procedure: ABCG2 inhibition assays were carried out on HEK293 WT and HEK293-ABCG2 cells. Cells were seeded at the density of 1 × 10^5 cells/well in 24 well culture plates and incubated for 48 h at 37 °C under 5% CO2. Cells were treated with compounds and 10 μM of mitoxantrone for 30 min at 37 °C and 5% CO2. After incubation the cells were washed with PBS, trypsinized and resuspended in ice cold PBS. The intracellular drug fluorescence was monitored with a FACS Calibur cytometer (Becton Dickinson) using the FL4 channel, with at least 10,000 events collected. The maximal fluorescence (taken as 100%) was determined with the difference between the mean fluorescence of HEK-ABCG2 cells incubated with 0.5 μM Ko143 (ABCG2 reference inhibitor) or by using the HEK293 WT cell line as a control and cells without inhibitor (mitoxantrone alone). The percent of inhibition was determined as previously described. For bimodulation assays the cells were concomitantly treated with 10 μM of one or two combined inhibitors under similar conditions as described previously. For washing assays, cells were treated with 10 μM concentrations of compounds for 30 min. Then, the medium with the inhibitor was removed and the cells were washed with PBS and incubated only with culture medium for different periods of time (0.5 and 3 h). After incubation, cells were exposed to 5 µM mitoxantrone for 30 min, and then analyzed by flow cytometry. The percentage of transport inhibition was calculated by the following equation: %Inhibition=C-S/I-S×100 where “C” corresponds to the intracellular fluorescence of cells in the presence of the tested compounds and substrate (mitoxantrone to ABCG2, Rhodamine 123 to ABCB1 and calcein to ABCC1), “S” corresponds to the intracellular fluorescence of cells in the presence of substrate alone, and “I” corresponds to the intracellular fluorescence of cells in the presence of the substrate and reference inhibitor (Ko143 to ABCG2, GF120918 to ABCB1 and verapamil to ABCC1).
Background: Flow cytometry measures light scatter and fluorescence of single cells or particles in a stream.

Series [3] concerns ABCG2. Also on record: method as in PMID 15930306. As to conditions: cited from earlier work.

The term inhibition denotes the percentage by which the read-out fell short of the control. Regarding `COc1ccccc1CCn1c2c(c3c1-c1cccc(O)c1C3=O)C(=O)CC(C)C2` (centres unmarked) [5i, 1-Hydroxy-7-methyl-5-(2-methoxyphenethyl)-5,6,7,8-tetrahydroindeno[1,2-b]indole-9,10-dione], the IC50 at 72 h in series [1] came to 20 µM. In addition, the IC50 on ABCG2 [2] (HEK293-ABCG2 cells, mitoxantrone 10 µM, 30 min, read-out: IC50 (µM) ± SD, inhibition of ABCG2-mediated mitoxantrone efflux) came out at 0.07 ± 0.02 µM. For the same compound, at ABCG2 [2] (human, HEK293-ABCG2 cells, probe mitoxantrone (10 µM), from IC50 fitted curves, HEK293-ABCG2, mitoxantrone, 100% = Ko143 0.5 µM, read-out: IMAX (%) ± SD, maximal inhibition percentage), the inhibition at 30 min was 62.83 ± 0.48%. In addition, on ABCG2 [2] (ratio between IG50 and IC50 values), the “TR, therapeutic ratio (IG50/IC50)” value amounted to 293.66.
As for `CC(C)=CCc1c(O)cc2oc(-c3ccccc3)cc(=O)c2c1O` [6-prenylchrysin], the “Maximal inhibition of ABCG2” value in the series on ABCG2 [3] was “approximately 70%”.

These data come from publication PMC7815716, “Mechanistic basis of breast cancer resistance protein inhibition by new indeno[1,2-b]indoles” (Scientific Reports, 2021).
